From ChEMBL document CHEMBL5380809, “Discovery of Novel N-Hydroxy-1,2,4-oxadiazole-5-formamides as ASM Direct Inhibitors for the Treatment of Atherosclerosis” (J Med Chem, 2023)
The source made the active and inactive calls. The rule behind the calls is not given here.

Columns and labels:
[1] = AUC (0 to t) in ICR mouse at 1 mg/kg, iv measured for 0.083 to 24 hrs by LC-MS/MS analysis; format: ADME, organism-based; set-up: time 0.083-24 hrs, dose 1 mg/kg, route iv; details: in vivo
HUVEC [2] = experiment: Antiinflammatory activity against HUVEC cells assessed as decrease in Ox-LDL-induced MCP-1 mRNA level at 5 uM measured after 22 hrs by RT-PCR analysis; format: functional, cell-based; details: Homo sapiens
Mus musculus [3] = experiment: In vivo inhibition of aSMase in C57BL/6 mouse assessed as decrease in plasma S1P level at 6 to 40 mg/kg, ip bid for 1 week by ELISA method; format: functional, organism-based; details: dose 6-40 mg/kg, time 1.0 weeks
HUVEC [4] = experiment: Antiinflammatory activity against HUVEC cells assessed as decrease in LPS-induced IL-6 level measured after 22 hrs by ELISA method; format: functional, cell-based; details: Homo sapiens, dose 1-5 µM
HUVEC [5] = experiment: Downregulation of extracellular ceramide level in Ox-LDL-induced HUVEC cells upto 5 uM measured after 22 hrs by ELISA method; format: functional, cell-based; details: Homo sapiens
HUVEC [6] = experiment: Downregulation of intracellular ceramide level in LPS-induced HUVEC cells at 5 uM measured after 22 hrs by ELISA method; format: functional, cell-based; details: Homo sapiens
HUVEC [7] = experiment: Upregulation of intracellular sphingomyelin level in Ox-LDL-induced HUVEC cells measured after 22 hrs by ELISA method; format: functional, cell-based; details: Homo sapiens, dose <= 5.0 µM
HUVEC [8] = experiment: Effect on extracellular S1P level in Ox-LDL-induced HUVEC cells upto 5 uM measured after 22 hrs by ELISA method; format: functional, cell-based; details: Homo sapiens
HUVEC [9] = experiment: Effect on extracellular S1P level in HUVEC cells upto 5 uM measured after 22 hrs by ELISA method; format: functional, cell-based; details: Homo sapiens
Mus musculus [10] = experiment: Antiatherosclerotic activity in high-fat diet fed ApoE-/- mouse assessed as reduction in plasma total triacylglycerol level at 12 to 40 mg/kg, ip bid measured after 8 weeks; format: functional, organism-based; details: dose 12-40 mg/kg
HUVEC [11] = experiment: Downregulation of intracellular ceramide level in Ox-LDL-induced HUVEC cells at 5 uM measured after 22 hrs by ELISA method; format: functional, cell-based; details: Homo sapiens
HUVEC [12] = experiment: Downregulation of extracellular ceramide level in HUVEC cells upto 5 uM measured after 22 hrs by ELISA method; format: functional, cell-based; details: Homo sapiens
[13] = MRT (0 to infinity) in ICR mouse at 1 mg/kg, iv measured for 0.083 to 24 hrs by LC-MS/MS analysis; format: ADME, organism-based; details: in vivo, time 0.083-24 hrs
Mus musculus [14] = experiment: Antiatherosclerotic activity in high-fat diet fed ApoE-/- mouse assessed as reduction in plasma total cholesterol level at 12 to 40 mg/kg, ip bid measured after 8 weeks; format: functional, organism-based; details: dose 12-40 mg/kg
[15] = MRT (0 to infinity) in ICR mouse at 10 mg/kg, po measured for 0.083 to 24 hrs by LC-MS/MS analysis; format: ADME, organism-based; details: in vivo, time 0.083-24 hrs
HUVEC [16] = experiment: Upregulation of extracellular sphingomyelin level in Ox-LDL-induced HUVEC cells upto 5 uM measured after 22 hrs by ELISA method; format: functional, cell-based; details: Homo sapiens
Mus musculus [17] = experiment: In vivo inhibition of aSMase in C57BL/6 mouse assessed as decrease in plasma ceramide level at 6 to 40 mg/kg, ip bid for 1 week by ELISA method; format: functional, organism-based; details: dose 6-40 mg/kg, time 1.0 weeks
[18] = Half life in ICR mouse at 10 mg/kg, po measured for 0.083 to 24 hrs by LC-MS/MS analysis; format: ADME, organism-based; details: in vivo, time 0.083-24 hrs
HUVEC [19] = experiment: Effect on extracellular S1P level in LPS-induced HUVEC cells upto 5 uM measured after 22 hrs by ELISA method; format: functional, cell-based; details: Homo sapiens
[20] = MRT (0 to t) in ICR mouse at 1 mg/kg, iv measured for 0.083 to 24 hrs by LC-MS/MS analysis; format: ADME, organism-based; details: in vivo, time 0.083-24 hrs
[21] = Cmax in ICR mouse at 10 mg/kg, po measured for 0.083 to 24 hrs by LC-MS/MS analysis; format: ADME, organism-based; set-up: time upper 24 hrs, time lower 0.083 hrs, dose 10 mg/kg, route po; details: in vivo
[22] = In vivo inhibition of aSMase in C57BL/6 mouse assessed as decrease in liver aSMase level at 40 mg/kg, ip bid for 1 week by ELISA method relative to control; format: functional; set-up: scale not given: the % may be the effect or the level left; details: time 1 weeks
[23] = AUC (0 to t) in ICR mouse at 10 mg/kg, po measured for 0.083 to 24 hrs by LC-MS/MS analysis; format: ADME, organism-based; set-up: time upper 24 hrs, time lower 0.083 hrs, dose 10 mg/kg, route po; details: in vivo
[24] = Oral bioavailability in ICR mouse at 10 mg/kg measured for 0.083 to 24 hrs by LC-MS/MS analysis; format: ADME, organism-based; details: in vivo, time 0.083-24 hrs
[25] = AUC (0 to infinity) in ICR mouse at 10 mg/kg, po measured for 0.083 to 24 hrs by LC-MS/MS analysis; format: ADME, organism-based; set-up: time lower 0.083 hrs, dose 10 mg/kg, time upper 24 hrs, route po; details: in vivo
HUVEC [26] = experiment: Upregulation of intracellular sphingomyelin level in LPS-induced HUVEC cells measured after 22 hrs by ELISA method; format: functional, cell-based; details: Homo sapiens, dose <= 5.0 µM
HUVEC [27] = experiment: Antiinflammatory activity against HUVEC cells assessed as decrease in LPS-induced TNF-alpha level measured after 22 hrs by ELISA method; format: functional, cell-based; details: Homo sapiens, dose 1-5 µM
HUVEC [28] = experiment: Cytotoxicity against HUVEC cells assessed as cell growth inhibition at 0.5 to 20 uM incubated for 24 to 48 hrs by MTT assay; format: toxicity, cell-based; details: human, dose lower 0.5 µM, time lower 24 hrs, dose upper 20 µM, time upper 48 hrs
HUVEC [29] = experiment: Upregulation of extracellular sphingomyelin level in HUVEC cells upto 5 uM measured after 22 hrs by ELISA method; format: functional, cell-based; details: Homo sapiens
[30] = Clearance in ICR mouse at 1 mg/kg, iv measured for 0.083 to 24 hrs by LC-MS/MS analysis; format: ADME, organism-based; details: in vivo, time 0.083-24 hrs
[31] = Tmax in ICR mouse at 1 mg/kg, iv measured for 0.083 to 24 hrs by LC-MS/MS analysis; format: ADME, organism-based; details: in vivo, time 0.083-24 hrs
Mus musculus [32] = experiment: Antiatherosclerotic activity in high-fat diet fed ApoE-/- mouse assessed as reduction in plasma LDL-C level at 12 to 40 mg/kg, ip bid measured after 8 weeks; format: functional, organism-based; details: dose 12-40 mg/kg
HUVEC [33] = experiment: Downregulation of extracellular ceramide level in LPS-induced HUVEC cells upto 5 uM measured after 22 hrs by ELISA method; format: functional, cell-based; details: Homo sapiens
Mus musculus [34] = experiment: In vivo inhibition of aSMase in C57BL/6 mouse assessed as decrease in liver S1P level at 6 to 40 mg/kg, ip bid for 1 week by ELISA method; format: functional, organism-based; details: dose 6-40 mg/kg, time 1.0 weeks
HUVEC [35] = experiment: Downregulation of intracellular ceramide level in HUVEC cells at 5 uM measured after 22 hrs by ELISA method; format: functional, cell-based; details: Homo sapiens
Mus musculus [36] = experiment: In vivo inhibition of aSMase in C57BL/6 mouse assessed as decrease in liver ceramide level at 6 to 40 mg/kg, ip bid for 1 week by ELISA method; format: functional, organism-based; details: dose 6-40 mg/kg, time 1.0 weeks
HUVEC [37] = experiment: Upregulation of intracellular sphingomyelin level in HUVEC cells measured after 22 hrs by ELISA method; format: functional, cell-based; details: Homo sapiens, dose <= 5.0 µM
[38] = Tmax in ICR mouse at 10 mg/kg, po measured for 0.083 to 24 hrs by LC-MS/MS analysis; format: ADME, organism-based; details: in vivo, time 0.083-24 hrs
[39] = Apparent volume of distribution in ICR mouse at 1 mg/kg, iv measured for 0.083 to 24 hrs by LC-MS/MS analysis; format: ADME, organism-based; details: in vivo, time 0.083-24 hrs, read-out: Vz
Mus musculus [40] = experiment: In vivo inhibition of aSMase in C57BL/6 mouse assessed as decrease in plasma sphingomyelin level at 6 to 40 mg/kg, ip bid for 1 week by ELISA method; format: functional, organism-based; details: dose 6-40 mg/kg, time 1.0 weeks

AUC(0-t) [1]: 227 ng·h/mL | MRT inf [13]: 5.22 min | MRT inf [15]: 21 min | half-life [18]: 49.8 min | MRT last [20]: 4.62 min | Cmax [21]: 2760 ng/mL | AUC(0-t) [23]: 805 ng·h/mL | bioavailability [24]: 35.4% | AUC(0-inf) [25]: 809 ng·h/mL | clearance [30]: 73.2 mL/min/kg | Tmax [31]: 4.98 min | Tmax [38]: 4.98 min | Vd [39]: 1.28 L/kg
Compound: O=C(NO)c1nc(-c2ccc(COc3ccc(Br)cc3)cc2)no1
Activity (HUVEC [2]): Active | Activity (Mus musculus [3]): inactive | Activity (HUVEC [4]): Dose-Dependent Effect | Activity (HUVEC [5]): Active | Activity (HUVEC [6]): Active | Activity (HUVEC [7]): Dose-Dependent Effect | Activity (HUVEC [8]): inactive | Activity (HUVEC [9]): inactive | Activity (Mus musculus [10]): inactive | Activity (HUVEC [11]): Active | Activity (HUVEC [12]): Active | Activity (Mus musculus [14]): inactive | Activity (HUVEC [16]): Active | Activity (Mus musculus [17]): Active | Activity (HUVEC [19]): inactive | Activity [22]: 22% | Activity (HUVEC [26]): Dose-Dependent Effect | Activity (HUVEC [27]): Dose-Dependent Effect | Activity (HUVEC [28]): Non-Toxic | Activity (HUVEC [29]): Active | Activity (Mus musculus [32]): Active | Activity (HUVEC [33]): Active | Activity (Mus musculus [34]): Active | Activity (HUVEC [35]): Active | Activity (Mus musculus [36]): Active | Activity (HUVEC [37]): Dose-Dependent Effect | Activity (Mus musculus [40]): Active
